In PubChem BioAssay AID2060512 (Molecular Pharmacology Branch, DTP, NCI, 2025):

System: 186277-243-T-J2-PDC complex spheroid viability
Assay: Anticancer human tumor 186277-243-T-J2-PDC patient-derived colon adenocarcinoma cell line growth inhibition [GQUAD]
Details: for IC50: curve of first compound; for viability, T/C: stronger effect = lower value
Summary of the method: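 Viability of tumor cells grown as complex spheroids with endothelial and stromal cells, exposed to drug combinations. Top concentration at or near clinical Cmax (else 10 microM), diluted in half-log increments.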

[1] = second compound 0.0316 µM, first compound 0.0316 µM
[2] = second compound 0.0316 µM, first compound 0.1 µM
[3] = second compound 0.0316 µM, first compound 0.316 µM
[4] = second compound 0.0316 µM, first compound 1 µM
[5] = second compound 0.0316 µM, first compound 3.16 µM
[6] = second compound 0.0316 µM, first compound 10 µM
[7] = second compound 0.1 µM, first compound 0.0316 µM
[8] = second compound 0.1 µM, first compound 0.1 µM
[9] = second compound 0.1 µM, first compound 0.316 µM
[10] = second compound 0.1 µM, first compound 1 µM
[11] = second compound 0.1 µM, first compound 3.16 µM
[12] = second compound 0.1 µM, first compound 10 µM
[13] = second compound 0.316 µM, first compound 0.0316 µM
[14] = second compound 0.316 µM, first compound 0.1 µM
[15] = second compound 0.316 µM, first compound 0.316 µM
[16] = second compound 0.316 µM, first compound 1 µM
[17] = second compound 0.316 µM, first compound 3.16 µM
[18] = second compound 0.316 µM, first compound 10 µM
[19] = second compound 1 µM, first compound 0.0316 µM
[20] = second compound 1 µM, first compound 0.1 µM
[21] = second compound 1 µM, first compound 0.316 µM
[22] = second compound 1 µM, first compound 1 µM
[23] = second compound 1 µM, first compound 3.16 µM
[24] = second compound 1 µM, first compound 10 µM
[25] = second compound 3.16 µM, first compound 0.0316 µM
[26] = second compound 3.16 µM, first compound 0.1 µM
[27] = second compound 3.16 µM, first compound 0.316 µM
[28] = second compound 3.16 µM, first compound 1 µM
[29] = second compound 3.16 µM, first compound 3.16 µM
[30] = second compound 3.16 µM, first compound 10 µM
[31] = second compound 10 µM, first compound 0.0316 µM
[32] = second compound 10 µM, first compound 0.1 µM
[33] = second compound 10 µM, first compound 0.316 µM
[34] = second compound 10 µM, first compound 1 µM
[35] = second compound 10 µM, first compound 3.16 µM
[36] = second compound 10 µM, first compound 10 µM
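Throughout, for viability, T/C: 100% = DMSO vehicle control viability.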

For CCCS(=O)(=O)Nc1ccc(F)c(C(=O)c2c[nH]c3ncc(-c4ccc(Cl)cc4)cc23)c1F + CN(C)c1ccc(Nc2c3ccc(NC(=O)CCN4CCCC4)cc3nc3cc(NC(=O)CCN4CCCC4)ccc23)cc1, the IC50 (second compound 0.0316 µM) was 5.89 µM, the IC50 (second compound 0.1 µM) was 6.44 µM and the IC50 (second compound 0.316 µM) was 6.24 µM. For the same compound, the IC50 (second compound 1 µM) was 6.27 µM, the IC50 (second compound 3.16 µM) was 6.28 µM and the IC50 (second compound 10 µM) was 5.82 µM. For the same compound, the viability, T/C [1] was 97.2%, the viability, T/C [2] was 101% and the viability, T/C [3] was 90.2%. It also gave a viability, T/C [4] of 78.8%, a viability, T/C [5] of 77.9% and a viability, T/C [6] of 30.3%. For the same compound, the viability, T/C [7] was 95.2%, the viability, T/C [8] was 81.4% and the viability, T/C [9] was 83.6%. The viability, T/C [10] was 84.6%, the viability, T/C [11] was 95.8% and the viability, T/C [12] was 26.2%. It also gave a viability, T/C [13] of 89.1%, a viability, T/C [14] of 102% and a viability, T/C [15] of 86.3%. For the same compound, the viability, T/C [16] was 87%, the viability, T/C [17] was 82.7% and the viability, T/C [18] was 27.7%. It also gave a viability, T/C [19] of 90.3%, a viability, T/C [20] of 93.1% and a viability, T/C [21] of 84.4%. For the same compound, the viability, T/C [22] was 98.9%, the viability, T/C [23] was 83% and the viability, T/C [24] was 26.7%. It also gave a viability, T/C [25] of 92.2%, a viability, T/C [26] of 105% and a viability, T/C [27] of 86.5%. It also gave a viability, T/C [28] of 90.4%, a viability, T/C [29] of 82.5% and a viability, T/C [30] of 28.4%. The viability, T/C [31] was 96.9%, the viability, T/C [32] was 91.1% and the viability, T/C [33] was 97.9%. The viability, T/C [34] was 87.7%, the viability, T/C [35] was 82.3% and the viability, T/C [36] was 22%.

With C=CC(=O)N1CCN(c2nc(=O)n(-c3c(C)ccnc3C(C)C)c3nc(-c4c(O)cccc4F)c(F)cc23)C(C)C1 (stereo unspecified) + Cc1cnc(CNC(=O)c2c(=O)c3ccc(N4CCCN(C)CC4)nc3n3c2sc2ccccc23)cn1 the IC50 (second compound 0.0316 µM) was greater than 10 µM, the IC50 (second compound 0.1 µM) was greater than 10 µM and the IC50 (second compound 0.316 µM) was greater than 10 µM. The IC50 (second compound 1 µM) was greater than 10 µM, the IC50 (second compound 3.16 µM) was less than 0.0316 µM and the IC50 (second compound 10 µM) was greater than 10 µM. For the same compound, the viability, T/C [1] was 89.2%, the viability, T/C [2] was 106% and the viability, T/C [3] was 105%. The viability, T/C [4] was 94.1%, the viability, T/C [5] was 109% and the viability, T/C [6] was 88.6%. For the same compound, the viability, T/C [7] was 84.6%, the viability, T/C [8] was 91.3% and the viability, T/C [9] was 99%. The viability, T/C [10] was 83.7%, the viability, T/C [11] was 96.1% and the viability, T/C [12] was 76.1%. For the same compound, the viability, T/C [13] was 81.5%, the viability, T/C [14] was 58.7% and the viability, T/C [15] was 75.7%. It also gave a viability, T/C [16] of 75.3%, a viability, T/C [17] of 75.8% and a viability, T/C [18] of 66.4%. For the same compound, the viability, T/C [19] was 59.9%, the viability, T/C [20] was 62% and the viability, T/C [21] was 65.6%. It also gave a viability, T/C [22] of 66.7%, a viability, T/C [23] of 68.4% and a viability, T/C [24] of 66.1%. It also gave a viability, T/C [25] of 50.3%, a viability, T/C [26] of 47.4% and a viability, T/C [27] of 52.4%. The viability, T/C [28] was 53.7%, the viability, T/C [29] was 62.8% and the viability, T/C [30] was 46%. For the same compound, the viability, T/C [31] was 53.2%, the viability, T/C [32] was 46.5% and the viability, T/C [33] was 49.3%. It also gave a viability, T/C [34] of 56.2%, a viability, T/C [35] of 61.3% and a viability, T/C [36] of 47.6%.

CCc1c2c(nc3ccc(O)cc13)-c1cc3c(c(=O)n1C2)COC(=O)[C@]3(O)CC + Cc1[nH]c2ccc(F)cc2c1-c1nc2c3cccnc3c3ncccc3c2[nH]1 was tested, and the IC50 (second compound 0.0316 µM) was 0.013 µM, the IC50 (second compound 0.1 µM) was 0.0131 µM and the IC50 (second compound 0.316 µM) was 0.0103 µM. The IC50 (second compound 1 µM) was 0.0113 µM, the IC50 (second compound 3.16 µM) was 0.00739 µM and the IC50 (second compound 10 µM) was 0.0157 µM. The viability, T/C (second compound 0.0316 µM, first compound 0.000999 µM) was 99.6%, the viability, T/C (second compound 0.0316 µM, first compound 0.00316 µM) was 71.6% and the viability, T/C (second compound 0.0316 µM, first compound 0.00999 µM) was 62.5%. It also gave a viability, T/C [1] of 29.9%, a viability, T/C (second compound 0.0316 µM, first compound 0.0999 µM) of 25.1% and a viability, T/C [3] of 21.1%. For the same compound, the viability, T/C (second compound 0.1 µM, first compound 0.000999 µM) was 115%, the viability, T/C (second compound 0.1 µM, first compound 0.00316 µM) was 94.5% and the viability, T/C (second compound 0.1 µM, first compound 0.00999 µM) was 52.4%. It also gave a viability, T/C [7] of 36.5%, a viability, T/C (second compound 0.1 µM, first compound 0.0999 µM) of 21.4% and a viability, T/C [9] of 22%. For the same compound, the viability, T/C (second compound 0.316 µM, first compound 0.000999 µM) was 105%, the viability, T/C (second compound 0.316 µM, first compound 0.00316 µM) was 70.1% and the viability, T/C (second compound 0.316 µM, first compound 0.00999 µM) was 54.2%. It also gave a viability, T/C [13] of 33.9%, a viability, T/C (second compound 0.316 µM, first compound 0.0999 µM) of 23.7% and a viability, T/C [15] of 19.8%. The viability, T/C (second compound 1 µM, first compound 0.000999 µM) was 91.5%, the viability, T/C (second compound 1 µM, first compound 0.00316 µM) was 73.2% and the viability, T/C (second compound 1 µM, first compound 0.00999 µM) was 49.9%. For the same compound, the viability, T/C [19] was 37.4%, the viability, T/C (second compound 1 µM, first compound 0.0999 µM) was 25% and the viability, T/C [21] was 20.7%. For the same compound, the viability, T/C (second compound 3.16 µM, first compound 0.000999 µM) was 85.9%, the viability, T/C (second compound 3.16 µM, first compound 0.00316 µM) was 63.5% and the viability, T/C (second compound 3.16 µM, first compound 0.00999 µM) was 45.6%. It also gave a viability, T/C [25] of 31%, a viability, T/C (second compound 3.16 µM, first compound 0.0999 µM) of 26.4% and a viability, T/C [27] of 18.7%. The viability, T/C (second compound 10 µM, first compound 0.000999 µM) was 77.2%, the viability, T/C (second compound 10 µM, first compound 0.00316 µM) was 72.2% and the viability, T/C (second compound 10 µM, first compound 0.00999 µM) was 58.8%. For the same compound, the viability, T/C [31] was 36.8%, the viability, T/C (second compound 10 µM, first compound 0.0999 µM) was 24.1% and the viability, T/C [33] was 23.3%.
